In patent publication US20230192677A1, “CYP11A1 INHIBITORS” (ORION CORPORATION, priority 2020, published 2023):

Key:
CYP11A1 = biological target: T1, CYP11A1 (Homo sapiens, UniProt P05108); test: CYP11A1 inhibition, isocaproic acid release assay (IARA) in H295R cells; assay type: cell-based; details: human H295R adrenocortical carcinoma cell line, three days, 3 nM [24,25-3H]-labelled cholesterol; read-out: IC50 on CYP11A1 inhibition (Group)
T1 construct: human H295R adrenocortical carcinoma cell line was used as source of enzyme; endogenous in cells; host or cells: H295R human adrenocortical carcinoma cells
T1 sequence (P05108 40-521): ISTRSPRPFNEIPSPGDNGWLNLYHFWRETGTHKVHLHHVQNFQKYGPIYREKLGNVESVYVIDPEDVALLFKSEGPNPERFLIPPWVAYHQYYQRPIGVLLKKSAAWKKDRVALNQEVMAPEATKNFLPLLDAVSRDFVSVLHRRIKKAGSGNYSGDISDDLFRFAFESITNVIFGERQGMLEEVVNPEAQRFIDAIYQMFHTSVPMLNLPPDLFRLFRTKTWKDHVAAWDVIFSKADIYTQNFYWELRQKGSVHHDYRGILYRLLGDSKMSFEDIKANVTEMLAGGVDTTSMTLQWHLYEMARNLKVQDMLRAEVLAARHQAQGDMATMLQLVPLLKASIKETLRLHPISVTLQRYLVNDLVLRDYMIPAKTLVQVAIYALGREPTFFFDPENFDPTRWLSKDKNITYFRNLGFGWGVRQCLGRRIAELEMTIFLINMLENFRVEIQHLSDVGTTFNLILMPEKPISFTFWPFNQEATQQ
Method: The ability of the test compounds to inhibit conversion of cholesterol to pregnenolone and isocaproic acid was measured by modification of isocaproic acid release assay (IARA) described by Ruangwises et al. (Biology of Reproduction 1991; 45(1):143-50) except that human H295R adrenocortical carcinoma cell line was used as source of enzyme and extraction was done with dextran-coated charcoal suspension (Isomaa, V. et al., Endocrinology 1982; 111(3):833-843). […] To determine the half maximal inhibitory concentration (IC50) of the test compounds on CYP11A1 inhibition, the cells were treated for three days with increasing concentrations of the test compounds in the presence of 3 nM [24,25-3H]-labelled cholesterol (American Radiolabelled Chemicals). The final DMSO concentration was 1%. Cell culture medium was extracted with dextran-coated charcoal suspension and the radiolabelled isocaproic acid was determined by mixing 100 μl of supernatant fraction in 200 μl of scintillation fluid (OptiPhase SuperMix, Perkin Elmer). Radioactivity was measured using a Microbeta scintillation counter (1450 MicroBeta Trilux, Wallac). All the test compounds were studied at 10 concentrations in duplicates.

[1] = biological target: recombinant human cytochrome P450 (CYP) CYP3A4 enzyme (Homo sapiens, UniProt P08684); test: Formation of reactive metabolites, trapping with GSH, KCN and SCA; details: recombinant human CYP3A4, NADPH, 1 hour, pH 7.4
Sequence of recombinant human cytochrome P450 (CYP) CYP3A4 enzyme (P08684 whole entry): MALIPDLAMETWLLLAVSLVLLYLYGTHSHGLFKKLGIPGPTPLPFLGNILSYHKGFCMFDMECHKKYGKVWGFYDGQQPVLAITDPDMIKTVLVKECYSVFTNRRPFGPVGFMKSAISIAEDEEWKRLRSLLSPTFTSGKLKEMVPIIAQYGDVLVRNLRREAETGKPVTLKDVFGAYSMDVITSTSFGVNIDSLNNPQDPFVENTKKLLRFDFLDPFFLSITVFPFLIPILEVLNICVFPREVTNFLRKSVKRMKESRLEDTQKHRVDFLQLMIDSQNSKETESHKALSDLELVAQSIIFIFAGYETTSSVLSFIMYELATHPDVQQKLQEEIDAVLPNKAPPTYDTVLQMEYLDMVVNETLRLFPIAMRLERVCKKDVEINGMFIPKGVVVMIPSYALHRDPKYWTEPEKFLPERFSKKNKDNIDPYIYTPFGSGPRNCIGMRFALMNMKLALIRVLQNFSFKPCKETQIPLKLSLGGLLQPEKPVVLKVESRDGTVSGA
Method: Formation of reactive metabolites was studied as described in Grillo, M., Expert Opin. […] (2015), 11(8):1281-1302 by incubating test compounds with recombinant human cytochrome P450 (CYP) CYP3A4 enzyme in the presence of cofactor NADPH and trapping agents glutathione (GSH), potassium cyanide (KCN) and semicarbazide (SCA).
Compounds were dissolved in DMSO and diluted in phosphate buffer (pH 7.4) to obtain the final incubation concentration 1 or 10 μM. Compounds were incubated with one trapping agent (mixture of unlabelled and ^13C^15N-labelled trapper 1:1) at a time with cofactor NADPH (actual samples) and without NADPH (control samples). Incubation time was 1 hour. Samples at timepoint 0 min (before incubation) and 60 min (after incubation) were analysed using ultra high-pressure liquid chromatography (UHPLC) coupled with high-resolution mass spectrometry (HRMS). Tentative identification of trapped metabolites was based on accurate masses of protonated molecules and product ion spectra of found metabolites and accurate mass differences between unlabelled and labelled trapping agents reacted with reactive metabolites.
The metabolites were classified as “major” if the peak area after incubation was over 10% of parent peak area before incubation. If peak area was between 1% and 10%, metabolites were classified as “minor” and if peak area was less than 1%, metabolite was classified as “trace”.

Compound: CS(=O)(=O)N1CCC(COc2coc(CN3Cc4ccc(-n5cccn5)cc4C3)cc2=O)CC1 [Compound 7, 2-((5-(1H-Pyrazol-1-yl)isoindolin-2-yl)methyl)-5-((1-(methylsulfonyl)piperidin-4-yl)methoxy)-4H-pyran-4-one]
- IC50 (CYP11A1): 101 to 200 nM
- Number of CN trapped metabolites ([1]; test compound 10 μM): 0
- Number of GSH trapped metabolites ([1]; test compound 10 μM): 0
- Number of SCA trapped metabolites ([1]; test compound 10 μM): 1 (trace)

Compound: CS(=O)(=O)N1CCC(COc2coc(CN3Cc4ccc(-c5ncon5)cc4C3)cc2=O)CC1 [Compound 8, 2-((5-(1,2,4-Oxadiazol-3-yl)isoindolin-2-yl)methyl)-5-((1-(methylsulfonyl)-piperidin-4-yl)methoxy)-4H-pyran-4-one]
- IC50 (CYP11A1): 101 to 200 nM
- Number of CN trapped metabolites ([1]; test compound 10 μM): 0
- Number of GSH trapped metabolites ([1]; test compound 10 μM): 1 (trace)

Compound: CS(=O)(=O)c1cc(CN2Cc3ccc(-c4nnco4)cc3C2)ccc1OCC1CCN(S(C)(=O)=O)CC1 [Compound 10, 2-(2-(3-(Methylsulfonyl)-4-((1-(methylsulfonyl)piperidin-4-yl)methoxy)benzyl)-isoindolin-5-yl)-1,3,4-oxadiazole]
- IC50 (CYP11A1): 101 to 200 nM
- Number of CN trapped metabolites ([1]; test compound 10 μM): 1 (trace)
- Number of GSH trapped metabolites ([1]; test compound 10 μM): 0
- Number of SCA trapped metabolites ([1]; test compound 10 μM): 2 (trace)

Compound: CC(C)(C)OC(=O)N1CC2(CC(COc3coc(CN4CCc5ccccc5C4)cc3=O)C2)C1 [Compound 30, tert-Butyl 6-(((6-((3,4-dihydroisoquinolin-2(1H)-yl)methyl)-4-oxo-4H-pyran-3-yl)oxy)methyl)-2-azaspiro[3.3]heptane-2-carboxylate]
- IC50 (CYP11A1): 201 to 2000 nM
- Number of CN trapped metabolites ([1]; test compound 1 μM): 0
- Number of GSH trapped metabolites ([1]; test compound 1 μM): 0
- Number of SCA trapped metabolites ([1]; test compound 1 μM): 0

Compound: CC(=O)c1ccc2c(c1)CN(Cc1cc(=O)c(OCC3CCN(S(C)(=O)=O)CC3)co1)C2 [Compound 89, 2-((5-Acetylisoindolin-2-yl)methyl)-5-((1-(methylsulfonyl)piperidin-4-yl)-methoxy)-4H-pyran-4-one]
- IC50 (CYP11A1): < 100 nM
- Number of CN trapped metabolites ([1]; test compound 10 μM): 0
- Number of GSH trapped metabolites ([1]; test compound 10 μM): 0
- Number of SCA trapped metabolites ([1]; test compound 10 μM): 1 (trace)

Compound: C/C(=N\O)c1ccc2c(c1)CN(Cc1cc(=O)c(OCC3CCN(S(C)(=O)=O)CC3)co1)C2 [Compound 90, (E)-2-((5-(1-(Hydroxyimino)ethyl)isoindolin-2-yl)methyl)-5-((1-(methylsulfonyl)piperidin-4-yl)methoxy)-4H-pyran-4-one]
- IC50 (CYP11A1): 101 to 200 nM
- Number of CN trapped metabolites ([1]; test compound 10 μM): 0
- Number of GSH trapped metabolites ([1]; test compound 10 μM): 0
- Number of SCA trapped metabolites ([1]; test compound 10 μM): 1 (trace)

Compound: CC(O)c1ccc2c(c1)CN(Cc1cc(=O)c(OCC3CCN(S(C)(=O)=O)CC3)co1)C2 (stereo not drawn) [Compound 93, 2-((5-(1-Hydroxyethyl)isoindolin-2-yl)methyl)-5-((1-(methylsulfonyl)piperidin-4-yl)methoxy)-4H-pyran-4-one]
- IC50 (CYP11A1): 201 to 2000 nM
- Number of CN trapped metabolites ([1]; test compound 10 μM): 0
- Number of GSH trapped metabolites ([1]; test compound 10 μM): 0
- Number of SCA trapped metabolites ([1]; test compound 10 μM): 3 (trace)
